Source: paper PMC5430895 (Scientific Reports, 2017)

Experiments:
[1] = test system: saracatinib uptake into RASF; assay: Uptake competition experiments: saracatinib uptake by RASF in presence of transporter substrates; conditions: saracatinib 10 µM
[2] = substrate: CN1CCN(CCOc2cc(OC3CCOCC3)c3c(Nc4c(Cl)ccc5c4OCO5)ncnc3c2)CC1; assay: cells, lysate or membranes named; conditions: other: hOCTN1-HEK293 cells, 10 min incubation; pH 7.4; 37.0 °C
Method: Twenty-four hours before starting experiments hOCTN1 expression was induced by 1 mg/l doxycycline (Sigma-Aldrich, Steinheim, Germany). Cells were grown at standard conditions. […] Cell number was evaluated with a CASEYTT cell counter (Roche Innovatis, Reutlingen, Germany).
After incubation, cells were washed with ice-cold PBS and hypoosmotic lysis was induced with 0.1% formic acid. […] The mobile phase consisted of (A) acetonitrile with 0.1% formic acid and (B) 0.1% formic acid and was delivered at 0.3 ml/min in a gradient program. After delivering 100% B for 3 min, a linear gradient to 100% A was applied within 7 min and maintained for 5 min. Thereafter, in order to re-equilibrate the column, a simple isocratic elution step with 100% eluent B was applied for at least 6 min. […] Separation was carried out on an Accucore C18 column equipped with a C18 guard column. The data were acquired by ChromQuest 5.0 chromatography software.

Molecule: C[N+](C)(C)[C@@H](Cc1c[nH]c(=S)[nH]1)C(=O)[O-] [Ergothioneine, L-(+)-ergothioneine]
- net accumulation rate of saracatinib, % of the control ([1]; ergothioneine 40 µM (OCTN1 substrate)): 53%

Molecule: C[n+]1ccc(-c2ccccc2)cc1.[I-] [MPP^+]
- effect on saracatinib uptake ([1]; MPP+ 20 µM (inhibitor of hOCT1-3)): did not influence saracatinib uptake

B1: hOCTN1 (Homo sapiens) (protein)
chain: MRDYDEVIAFLGEWGPFQRLIFFLLSASIIPNGFNGMSVVFLAGTPEHRCRVPDAANLSSAWRNNSVPLRLRDGREVPHSCSRYRLATIANFSALGLEPGRDVDLGQLEQESCLDGWEFSQDVYLSTVVTEWNLVCEDNWKVPLTTSLFFVGVLLGSFVSGQLSDRFGRKNVLFATMAVQTGFSFLQIFSISWEMFTVLFVIVGMGQISNYVVAFILGTEILGKSVRIIFSTLGVCTFFAVGYMLLPLFAYFIRDWRMLLLALTVPGVLCVPLWWFIPESPRWLISQRRFREAEDIIQKAAKMNNIAVPAVIFDSVEELNPLKQQKAFILDLFRTRNIAIMTIMSLLLWMLTSVGYFALSLDAPNLHGDAYLNCFLSALIEIPAYITAWLLLRTLPRRYIIAAVLFWGGGVLLFIQLVPVDYYFLSIGLVMLGKFGITSAFSMLYVFTAELYPTLVRNMAVGVTSTASRVGSIIAPYFVYLGAYNRMLPYIVMGSLTVLIGILTLFFPESLGMTLPETLEQMQKVKWFRSGKKTRDSMETEENPKVLITAF
- Km [2]: 42 ± 11 µM
